According to publication PMC9471048, “The signaling and selectivity of α‐adrenoceptor agonists for the human α2A, α2B and α2C‐adrenoceptors and comparison with human α1 and β‐adrenoceptors” (Pharmacology Research & Perspectives, 2022):
Like-named read-outs stand apart in the source and are kept apart here.

Assays:
[1] = target: T1, human α2A‐adrenoceptor (Homo sapiens, UniProt P08913); conditions: for IC50: CRE‐SPAP (with forskolin), 3 μM forskolin
T1 sequence (P08913 1-465): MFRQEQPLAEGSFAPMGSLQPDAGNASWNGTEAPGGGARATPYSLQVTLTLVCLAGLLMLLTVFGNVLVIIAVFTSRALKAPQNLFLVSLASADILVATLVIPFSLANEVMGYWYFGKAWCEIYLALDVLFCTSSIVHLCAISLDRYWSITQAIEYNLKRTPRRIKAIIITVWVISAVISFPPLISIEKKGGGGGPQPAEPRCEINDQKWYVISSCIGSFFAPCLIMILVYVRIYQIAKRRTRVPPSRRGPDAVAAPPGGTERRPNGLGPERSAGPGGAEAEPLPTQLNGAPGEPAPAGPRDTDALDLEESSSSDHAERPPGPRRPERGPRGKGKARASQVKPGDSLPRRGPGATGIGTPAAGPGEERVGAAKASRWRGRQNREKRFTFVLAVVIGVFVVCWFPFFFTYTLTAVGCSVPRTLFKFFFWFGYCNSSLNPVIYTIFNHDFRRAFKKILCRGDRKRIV

[2] = target: T2, human α2C‐adrenoceptor (Homo sapiens, UniProt P18825); conditions: for IC50: Log IC50 (Gi), CRE‐SPAP (with forskolin)
T2 sequence (P18825 1-462): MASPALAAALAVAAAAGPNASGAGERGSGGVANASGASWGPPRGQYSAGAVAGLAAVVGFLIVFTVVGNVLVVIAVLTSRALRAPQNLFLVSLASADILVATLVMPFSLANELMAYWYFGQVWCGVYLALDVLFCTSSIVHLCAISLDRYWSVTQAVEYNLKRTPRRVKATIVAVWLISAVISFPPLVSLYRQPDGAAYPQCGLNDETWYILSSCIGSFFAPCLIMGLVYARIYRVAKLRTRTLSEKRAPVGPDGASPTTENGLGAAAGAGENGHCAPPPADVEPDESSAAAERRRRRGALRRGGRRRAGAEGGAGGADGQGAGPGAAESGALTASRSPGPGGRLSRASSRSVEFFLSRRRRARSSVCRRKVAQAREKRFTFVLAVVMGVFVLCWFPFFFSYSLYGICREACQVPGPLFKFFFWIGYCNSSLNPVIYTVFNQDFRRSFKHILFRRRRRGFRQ

[3] = target: T2, human α2C‐adrenoceptor; test: 3H‐rauwolscine whole cell binding in CHO‐α2C cells; design: expressed in transfected cells; host or cells: CHO-K1 with CRE-SPAP reporter; conditions: for Selectivity ratio α2B vs α2C (higher affinity for α2C): fold, from KD values, 1 = no selectivity
[4] = target: T1, human α2A‐adrenoceptor; test: ERK1/2‐phosphorylation in CHO‐α2A cells; type: cell-based; design: expressed in transfected cells; host or cells: CHO-K1 with CRE-SPAP reporter; conditions: for EC50: read-out: Log EC50, ERK1/2‐phosphorylation (converted)
[5] = target: T2, human α2C‐adrenoceptor; test: ERK1/2‐phosphorylation in CHO‐α2C cells; type: cell-based; design: expressed in transfected cells; host or cells: CHO-K1 with CRE-SPAP reporter; conditions: for EC50: read-out: Log EC50, ERK1/2‐phosphorylation (converted)
[6] = target: T1, human α2A‐adrenoceptor; test: 3H‐rauwolscine whole cell binding in CHO‐α2A cells; design: expressed in transfected cells; host or cells: CHO-K1 with CRE-SPAP reporter; conditions: for Kd: 3H‐rauwolscine whole cell binding; for Selectivity ratio α2A vs α2B (higher affinity for α2A) / Selectivity ratio α2A vs α2C (higher affinity for α2A): fold, from KD values, 1 = no selectivity
[7] = read-out: Log KD, CHO‐α2C (converted)
[8] = CHO‐α2A (cell line 1), absence of forskolin
[9] = CHO‐α2C cells, % inhibition from the 3 μM forskolin control, mean ± SEM
[10] = CHO‐α2C cells, CRE‐SPAP production in the absence of forskolin
[11] = CHO‐α2C cells, log KD from 3H‐rauwolscine binding versus CRE‐SPAP log IC50
[12] = CHO‐α2C cells, inhibition of 3 μM forskolin‐stimulated CRE‐SPAP production, given as negative log IC50, mean ± SEM
[13] = CHO‐α2A, given as negative log KD, read-out: Log KD (binding) (converted)
[14] = CHO‐α2C cells, 3H‐rauwolscine whole cell binding, given as negative log KD, mean only (SEM in Table 4), read-out: Log KD (converted)
[15] = CHO‐α2A, maximum response compared to 10 μM PDBu
[16] = CHO‐α2C cells, maximum response compared to 10 μM PDBu, mean ± SEM
[17] = CHO‐α2C cells, given as negative log EC50, mean ± SEM

Row | SMILES | % 3 μM forskolin, CRE‐SPAP (without forskolin) [1] [%] | % inhibition, CRE‐SPAP (with forskolin) [2] [%] | Log EC50 (Gs), CRE‐SPAP (without forskolin) [2] | IC50 [2] [nM] | Kd ([3]; read-out: Log KD (converted)) [nM] | Kd [3, 7] [nM] | % 10 μM PDBu, ERK1/2‐phosphorylation [4] [%] | % 10 μM PDBu, ERK1/2‐phosphorylation [5] [%] | EC50 [5] [nM] | Log EC50 (Gs), CRE‐SPAP (without forskolin) [1, 8] | % inhibition, CRE‐SPAP (with forskolin) [2, 9] [%] | Log EC50 (Gs), CRE‐SPAP (without forskolin) [2, 10] | Log efficacy ratio (KD/IC50) [2, 11] | IC50 [2, 12] [nM] | Kd [6, 13] [nM] | Selectivity ratio α2A vs α2B (higher affinity for α2A) [6] | Selectivity ratio α2A vs α2C (higher affinity for α2A) [6] | Kd [3, 14] [nM] | Selectivity ratio α2B vs α2C (higher affinity for α2C) [3] | % 10 μM PDBu, ERK1/2‐phosphorylation [4, 15] [%] | other results
1 | Cc1cccc(C(C)c2cnc[nH]2)c1C (stereo not shown) [Medetomidine] | 23.1 ± 4.7 | 86.4 ± 2.1 | No response | 0.513 | 32.4 | 32.4 | 114.1 ± 9.3 | 159.3 ± 16.4 | 0.195 | – | – | – | – | – | – | – | – | – | – | – | –
2 | COc1ccc(OC)c(C(O)C(C)N)c1 (stereo not shown) [Methoxamine] | – | – | – | – | – | – | – | – | – | No response | 72.3 ± 13.6 | No response | 1.01 | 11000 | 93300 | 2.5 | 1.2 | 112000 | 2.1 | 120.9 ± 29.4 | IC50 ([1]; IC50 (Gi), CHO‐α2A): > 100000 nM; Kd ([6]; ^app: apparent KD, IC50 from extrapolated curve as not all specific binding was inhibited, read-out: Log KD (apparent), CHO‐α2A (converted)): 93300 nM; Kd ([3]; 3H‐rauwolscine whole cell binding, ^app: apparent KD, IC50 from extrapolated curve as not all specific binding was inhibited, read-out: Log KD (apparent), CHO‐α2C (converted)): 112000 nM; EC50 ([4]; CHO‐α2A): 6030 nM; % 10 μM PDBu, ERK1/2‐phosphorylation [5, 16]: 131.0 ± 19.2%; EC50 [5, 17]: 2340 nM
3 | C1COC(NC(C2CC2)C2CC2)=N1 [Rilmenidine] | – | – | – | – | – | – | – | – | – | No response | 69.0 ± 7.9 | No response | 0.52 | 468 | 1550 | 2.6 | 1.0 | 1550 | 2.6 | 144.0 ± 22.0 | % inhibition, CRE‐SPAP (with forskolin) ([1]; CHO‐α2A (cell line 1), % inhibition from the 3 μM forskolin control, inhibition only): 94.2 ± 3.6%; Log efficacy ratio (KD/IC50) ([1]; CHO‐α2A, binding KD / Gi IC50 of CRE‐SPAP): 0.96; IC50 ([1]; Log IC50 (Gi), CHO‐α2A (cell line 1, 5830 fmol/mg protein)): 170 nM; Kd ([6]; living cells, negative log KD, mean ± SEM, read-out: Log KD, CHO‐α2A (converted)): 1550 nM; Kd ([3]; 3H‐rauwolscine whole cell binding, living cells, negative log KD, mean ± SEM, read-out: Log KD, CHO‐α2C (converted)): 1550 nM; EC50 ([4]; CHO‐α2A): 14.8 nM; % 10 μM PDBu, ERK1/2‐phosphorylation [5, 16]: 125.2 ± 15.6%; EC50 [5, 17]: 49 nM
4 | Cc1cccc([C@H](C)c2cnc[nH]2)c1C [Dexmedetomidine] | 23.6 ± 2.7 | 73.4 ± 4.4 | No response | 0.692 | 30.2 | 30.2 | 138.5 ± 15.4 | 153.0 ± 18.5 | 0.263 | – | – | – | – | – | – | – | – | – | – | – | higher affinity for α2 than α1‐adrenoceptor subtypes [6]: 100 fold
5 | Nc1cc(Cl)c(N=C2NCCN2)c(Cl)c1 [Para‐amino‐clonidine] | 37.6 ± 4.0 | 82.3 ± 2.2 | No response | – | – | – | 141.9 ± 10.6 | 132.6 ± 16.1 | – | – | – | – | – | – | – | – | – | – | – | – | % 3μM forskolin, CRE-SPAP (without forskolin) [1]: 12.9 ± 4.1%; % inhibition, CRE-SPAP (with forskolin) [1]: 67.5 ± 4.8%; Log EC50 (Gs), CRE-SPAP (with forskolin) [1]: -6.29 ± 0.32; Log EC50 (Gs), CRE‐SPAP (with forskolin) [1]: −6.81 ± 0.15; Log EC50 (Gs), CRE‐SPAP (without forskolin) [1]: −6.55 ± 0.10; Log IC50 (Gi), CRE‐SPAP (with forskolin) [1]: −8.74 ± 0.12; Log IC50 (Gi), CRE‐SPAP (with forskolin) [2]: −8.09 ± 0.07; Log efficacy ratio (KD/IC50) [2]: 1.78; Log KD (binding) [6]: −6.35; Log KD, CHO‐α2A [6]: −6.35 ± 0.03; Log KD [3]: −6.31; Log EC50, ERK1/2‐phosphorylation [4]: −9.58 ± 0.12; Log EC50, ERK1/2‐phosphorylation [5]: −8.68 ± 0.13
